Inhibition in vivo and ED50 data for 52 compounds are collected here from patent US4581354A, “3-arylcarbonyl- and 3-cycloalkylcarbonyl-1-aminoalkyl-1H-indoles, compositions and use” (Sterling Drug Inc., priority 1985, dated 1986).

One may read the ED50 as the dose at which the effect has come halfway, by size or by number of responders.

The structures appear in SMILES notation. Structures can show the parent of a compound that is named as a salt.

The test system of one assay is acetylcholine-induced abdominal constriction. Briefly: animal or person. It counts as in vivo, mice. Particulars: Mus musculus, iv, 10 mg./kg. i.v.; read-out: Ach percent inhibition. The text has this:
The test procedures used to determine the analgesic activities of the compounds have been described in detail in the prior art and are as follows: The acetylcholine-induced abdominal constriction test, which is a primary analgesic screening test designed to measure the ability of a test agent to suppress acetylcholine-induced abdominal constriction in mice, described by Collier et al., Brit. J. Pharmacol. Chemotherap. 32, 295 (1968); a modification of the anti-bradykinin test, which is also a primary analgesic screening procedure, described by Berkowitz et al., J. Pharmacol. Exptl. Therap. 177, 500-508 (1971), Blane et al., J. Pharm. Pharmacol. 19, 367-373 (1967), Botha et al., Eur. J. Pharmacol. 6, 312-321 (1969) and Deffenu et al., J. Pharm. Pharmacol. 18, 135 (1966); and the rat paw flexion test, described by Kuzuna et al., Chem. Pharm. Bull., 23, 1184-1191 (1975), Winter et al., J. Pharm. Exptl. Therap., 211, 678-685 (1979) and Capetola et al., J. Pharm. Exptl. Therap. 214, 16-23 (1980).
Unless noted otherwise, all data were obtained on oral administration and are expressed either as the ED50 or as the percent inhibition at a given dose level (thus 30/100 or 30% inhibition at […].)
In some instances, the compounds were retested two or more times, and ED50 values were calculated for each series of repeat tests. In such instances, each of the ED50 values so-obtained is given in a series of values, thus 6, 28, 30, 43 in the case of the species of Example 1AW in the acetylcholine-induced abdominal constriction test.
With `Cc1c(C(=O)c2cccc3ccccc23)c2ccccc2n1CCN1CCN(C)CC1` [Example 3J], the inhibition in vivo at 10 mg/kg came to 30%.

The same assay, now with this note: Mus musculus, iv; read-out: Ach ED50.
As for `Cc1c(C(=O)c2cccc3ccccc23)c2ccccc2n1CCN1CCCC(O)C1` (stereo not drawn) [Example 3H], the median effective dose (ED50) was found to be 9.7 mg/kg.

Still in this assay, the particulars now being: Mus musculus, po, 30 mg./kg. oral; read-out: Ach percent inhibition.
Take `CC(CN1CCOCC1)n1cc(C(=O)c2cccn2C)c2ccccc21` (stereo not drawn) [Example 2F]: the inhibition in vivo at 30 mg/kg is 20%. With `Cc1c(C(=O)c2ccc(CNC(N)=NC#N)cc2)c2ccccc2n1CCN1CCOCC1` [Example 10, 2-methyl-3-(4-cyanoguanidinylmethylbenzoyl)-1-[2-(4-morpholinyl)ethyl]-1H-indole], the inhibition in vivo at 30 mg/kg came out at 0%. On to `Cc1c(C(=O)c2ccc(C=O)cc2)c2ccccc2n1CCN1CCOCC1` [Example 11, 2-methyl-3-(4-formylbenzoyl)-1-[2-(4-morpholinyl)ethyl]-1H-indole], for which the inhibition in vivo at 30 mg/kg is 20%.

The same assay, now with this note: Mus musculus, po, 100 mg./kg. oral; read-out: Ach percent inhibition.
For `CC(CN1CCOCC1)n1cc(C(=O)c2ccc(F)cc2)c2ccccc21` (stereo not drawn) [Example 2D], the inhibition in vivo at 100 mg/kg stood at 20%. The same measure, in the same setting: with `CC(CN1CCOCC1)n1cc(C(=O)c2cccn2C)c2ccccc21` (stereo not drawn) [Example 2F] the figure was 40%. `Cc1c(C(=O)c2ccccc2C#N)c2ccccc2n1CCN1CCOCC1` [Example 2L]: the inhibition in vivo at 100 mg/kg worked out at 10%.

`Cc1c(C(=O)c2cccc(C#N)c2)c2ccccc2n1CCN1CCOCC1` [Example 2M]: the inhibition in vivo at 100 mg/kg is 20%. With `Cc1c(C(=O)c2ccn(C)c2)c2ccccc2n1CCN1CCOCC1` [Example 2N], the inhibition in vivo at 100 mg/kg is 20%.

For the compound `Cc1c(C(=O)c2ccsc2)c2ccccc2n1CCN1CCOCC1` [Example 2P], the inhibition in vivo at 100 mg/kg amounted to 30%. On the same count and under the same terms, the value for `Cc1c(C(=O)C2CCCCC2)c2ccccc2n1CCN1CCOCC1` [Example 2Q] was 20%; that for `Cc1c(C(=O)c2ccc(C(C)(C)C)cc2)c2ccccc2n1CCN1CCOCC1` [Example 2R] was 10%; that for `Cc1c(C(=O)c2cc3ccccc3s2)c2ccccc2n1CCN1CCOCC1` [Example 2S] was 0%.

For `Cc1c(C(=O)c2cccn2C)c2ccccc2n1CCN1CCOCC1` [Example 2T], the inhibition in vivo at 100 mg/kg turned out to be 30%.

Regarding `Cc1ccc(C(=O)c2c(C)n(CCN3CCOCC3)c3ccccc23)cc1C` [Example 2V], the inhibition in vivo at 100 mg/kg was determined as 20%. On the same count and under the same terms, with `CCN(CC)CCCCn1c(C)c(C(=O)c2ccc(OC)cc2)c2ccccc21` [Example 3AD] the figure was 100%; with `COc1ccc(C(=O)c2c(C)n(CCCN3CCS(=O)(=O)CC3)c3ccc(F)cc23)cc1` [Example 3AH], 30%; with `Cc1c(C(=O)c2cccc3ccccc23)c2ccccc2n1CCN1CCNCC1` [Example 3I], 30%.

On to `Cc1c(C(=O)c2cccc3ccccc23)c2ccccc2n1CCN1CCOC(C)C1` (stereo not drawn) [Example 3M], for which the inhibition in vivo at 100 mg/kg is 10%.

As to `COc1ccc(C(=O)c2c(C)n(CCN3CCCC(NC(C)=O)C3)c3ccccc23)cc1` (stereo not drawn) [Example 3N, 1-[2-(3-acetylamino-1-piperidinyl)ethyl]-2-methyl-3-(4-methoxybenzoyl)-1H-indole], the inhibition in vivo at 100 mg/kg was 40%.

Regarding `COc1ccc(C(=O)c2c(C)n(CCN3CCCCC3CC3CCCCC3)c3ccccc23)cc1` (stereo not drawn) [Example 3Q], the inhibition in vivo at 100 mg/kg turned out to be 40%. Turning to `COc1ccc(C(=O)c2c(C)n(CCN3CC(C)OC(C)C3)c3ccccc23)cc1` (stereo not drawn) [Example 3R], the inhibition in vivo at 100 mg/kg turned out to be 40%. As for `COc1ccc(C(=O)c2c(C)n(CCN3CCN(C=O)CC3)c3ccccc23)cc1` [Example 3S, 1-[2-(4-formyl-1-piperazinyl)ethyl]-2-methyl-3-(4-methoxybenzoyl)-1H-indole], the inhibition in vivo at 100 mg/kg stood at 40%.

Regarding `COc1ccc(C(=O)c2c(C)n(CCN3CCSCC3)c3ccccc23)cc1` [Example 3U, 2-methyl-3-(4-methoxybenzoyl)-1-[2-(4-thiomorpholinyl)ethyl]-1H-indole], the inhibition in vivo at 100 mg/kg came to 30%. As for `CCCCNc1ccc(C(=O)c2c(C)n(CCN3CCOCC3)c3ccccc23)cc1` [Example 8B, 2-methyl-3-(4-butylaminobenzoyl)-1-[2-(4-morpholinyl)ethyl]-1H-indole], the inhibition in vivo at 100 mg/kg was 35%.

Staying with this assay, now noted: Mus musculus, po, 150 mg./kg. oral; read-out: Ach percent inhibition.
Consider `Cc1c(C(=O)c2ccc(NS(C)(=O)=O)cc2)c2ccccc2n1CCN1CCOCC1` [Example 5E], for which the inhibition in vivo at 150 mg/kg worked out at 38%.

Still in this assay, the particulars now being: Mus musculus, po, 300 mg./kg. oral; read-out: Ach percent inhibition.
`CC(CN1CCOCC1)n1cc(C(=O)c2ccc(F)cc2)c2ccccc21` (stereo not drawn) [Example 2D]: the inhibition in vivo at 300 mg/kg is 40%. On the same count and under the same terms, with `CC(CN1CCOCC1)n1cc(C(=O)c2cccn2C)c2ccccc21` (stereo not drawn) [Example 2F] the figure was 33%; with `Cc1c(C(=O)c2ccc(NS(C)(=O)=O)cc2)c2ccccc2n1CCN1CCOCC1` [Example 5E], 40%; with `Cc1c(C(=O)c2ccc(NC(N)=O)cc2)c2ccccc2n1CCN1CCOCC1` [Example 9, 2-methyl-3-(4-carbamylaminobenzoyl)-1-[2-(4-morpholinyl)ethyl]-1H-indole], 27%.

The assay is the same for the next values; noted with them: Mus musculus, po, 1000 mg./kg. oral; read-out: Ach percent inhibition.
On to `CC(CN1CCOCC1)n1cc(C(=O)c2ccc(F)cc2)c2ccccc21` (stereo not drawn) [Example 2D], for which the inhibition in vivo at 1000 mg/kg amounted to 67%.

Still in this assay, the particulars now being: Mus musculus, po; read-out: Ach ED50.
Consider `CC(CN1CCOCC1)n1cc(C(=O)c2ccccc2F)c2ccccc21` (stereo not drawn) [Example 2E], for which the 50% effective dose (ED50) was determined as 33 mg/kg. For the compound `Cc1c(C(=O)c2ccc(F)cc2)c2ccccc2n1C(C)CN1CCOCC1` (stereo not drawn) [Example 2G], the ED50 turned out to be 42 mg/kg.

As to `Cc1c(C(=O)c2cccn2C)c2ccccc2n1C(C)CN1CCOCC1` (stereo not drawn) [Example 2H], the ED50 amounted to 49 mg/kg. With `Cc1cccc2c(C(=O)c3ccccc3)cn(C(C)CN3CCOCC3)c12` (stereo not drawn) [Example 2J], the median effective dose (ED50) worked out at 60 mg/kg.

Take `Cc1ccccc1C(=O)c1c(C)n(CCN2CCOCC2)c2ccccc12` [Example 2U]: the 50% effective dose (ED50) was determined as 88 mg/kg.

As for `Cc1c(C(=O)C=Cc2ccccc2)c2ccccc2n1CCN1CCOCC1` [Example 2W], the 50% effective dose (ED50) is 72 mg/kg. Consider `COc1ccc(C(=O)c2c(C)n(CCN(C)CCO)c3ccccc23)cc1` [Example 3-O], for which the ED50 amounted to 76 mg/kg. On to `COc1ccc(C(=O)c2c(C)n(CCN3CCC(O)CC3)c3ccccc23)cc1` [Example 3A, 2-methyl-3-(4-methoxybenzoyl)-1-[2-(4-hydroxy-1-piperidinyl)ethyl]-1H-indole hydrochloride hemihydrate], for which the ED50 came to 68.1 mg/kg. `COc1ccc(C(=O)c2c(C)n(CCCCN3CCOCC3)c3ccccc23)cc1` [Example 3AA]: the ED50 worked out at 22 mg/kg. For `COc1ccc(C(=O)c2c(C)n(CCCCN3CCCCC3)c3ccccc23)cc1` [Example 3AB], the ED50 was determined as 25 mg/kg. In the case of `COc1ccc(C(=O)c2c(C)n(CCCCN3CCCC3)c3ccccc23)cc1` [Example 3AC], the median effective dose (ED50) was determined as 21 mg/kg. On to `COc1ccc(C(=O)c2c(C)n(CCCN3CCSCC3)c3ccc(F)cc23)cc1.Cl` [Example 3AF, 5-fluoro-2-methyl-3-(4-methoxybenzoyl)-1-[3-(4-thiomorpholinyl)propyl]-1H-indole hydrochloride], for which the median effective dose (ED50) came out at 139 mg/kg. In the case of `CCNCCCn1c(C)c(C(=O)c2ccc(OC)cc2)c2cc(F)ccc21` [Example 3AG], the ED50 amounted to 42 mg/kg. For the compound `COc1ccc(C(=O)c2c(C)n(CCCN(C)CCO)c3ccc(F)cc23)cc1` [Example 3AJ], the 50% effective dose (ED50) is 35 mg/kg. `COc1ccc(C(=O)c2c(C)n(CCN3CCN(C)CC3)c3ccccc23)cc1` [Example 3C]: the ED50 amounted to 53 mg/kg. As for `CCNCCn1c(C)c(C(=O)c2ccc(OC)cc2)c2ccccc21` [Example 3K], the 50% effective dose (ED50) worked out at 45.7 mg/kg. Same read-out and setting: with `COCCNCCn1c(C)c(C(=O)c2ccc(OC)cc2)c2ccccc21` [Example 3L] the figure was 44 mg/kg; with `COc1ccc(C(=O)c2c(C)n(CCN3CCOC(C)C3)c3ccccc23)cc1` (stereo not drawn) [Example 3P], 71 mg/kg; with `COc1ccc(C(=O)c2c(C)n(CCN3CCCNCC3)c3ccccc23)cc1` [Example 3T], 53 mg/kg. On the same count and under the same terms, the value for `COc1ccc(C(=O)c2c(C)n(CCN3CCS(=O)(=O)CC3)c3ccccc23)cc1` [Example 3V] was 254 mg/kg.

Take `COc1ccc(C(=O)c2c(C)n(CCCN3CCCC(O)C3)c3ccc(F)cc23)cc1` (stereo not drawn) [Example 3W]: the ED50 is 49 mg/kg. Take `COc1ccc(C(=O)c2c(C)n(CCCN3CCOC(C)C3)c3ccc(F)cc23)cc1` (stereo not drawn) [Example 3Y]: the ED50 came to 69 mg/kg.

Regarding `COc1ccc2c(C(=O)c3ccc(N)cc3)c(C)n(CCN3CCOCC3)c2c1` [Example 4C, 2-methyl-3-(4-aminobenzoyl)-6-methoxy-1-[2-(4-morpholinyl)ethyl]-1H-indole], the ED50 was determined as 37 mg/kg. As for `Cc1c(C(=O)c2ccc(N)cc2)c2ccccc2n1C(C)CN1CCOCC1` (stereo not drawn) [Example 4D, 2-methyl-3-(4-aminobenzoyl)-1-[1-methyl-2-(4-morpholinyl)ethyl]-1H-indole], the ED50 turned out to be 24 mg/kg. Still for that read-out and setting: the value for `CCC(=O)Nc1ccc(C(=O)c2c(C)n(CCN3CCOCC3)c3ccccc23)cc1` [Example 5F] was 76 mg/kg.

The assay is the same for the next values; noted with them: Mus musculus, sc, 30 mg./kg. s.c.; read-out: Ach percent inhibition.
Regarding `Cc1c(C(=O)c2ccc(NC(N)=O)cc2)c2ccccc2n1CCN1CCOCC1` [Example 9, 2-methyl-3-(4-carbamylaminobenzoyl)-1-[2-(4-morpholinyl)ethyl]-1H-indole], the inhibition in vivo at 30 mg/kg was determined as 20%. `Cc1c(C(=O)c2ccc(CNC(N)=NC#N)cc2)c2ccccc2n1CCN1CCOCC1` [Example 10, 2-methyl-3-(4-cyanoguanidinylmethylbenzoyl)-1-[2-(4-morpholinyl)ethyl]-1H-indole]: the inhibition in vivo at 30 mg/kg turned out to be 7%. In the case of `Cc1c(C(=O)c2ccc(C=O)cc2)c2ccccc2n1CCN1CCOCC1` [Example 11, 2-methyl-3-(4-formylbenzoyl)-1-[2-(4-morpholinyl)ethyl]-1H-indole], the inhibition in vivo at 30 mg/kg stood at 13%.
